Results as given in the NIST ThermoML archive (doi:10.1021/acs.jced.5b00348).
Where “and” joins values, the source holds several entries; their conditions need not be identical. Equal values may be shown once.

Conditions: for vapor or sublimation pressure: Closed cell (Static) method

FC(F)(F)/C=C/Cl [(E)-1-chloro-3,3,3-trifluoroprop-1-ene]
Conditions	mass density [kg/m3]	speed of sound
215.01 K, 1815.3 kPa, Liquid	1449.31	–
220 K, 1921.7 kPa, Liquid	1439.12	–
220 K, 8321.7 kPa, Liquid	1447.77	–
225 K, 8257.8 kPa, Liquid	1437.64	–
230 K, 14558 kPa, Liquid	1436.27	–
235 K, 1363.6 kPa, Liquid	1406.94	–
235 K, 5155.5 kPa, Liquid	1412.84	–
235 K, 10102 kPa, Liquid	1420.19	–
235 K, 15131 kPa, Liquid	1427.32	–
235 K, 20809 kPa, Liquid	1434.98	–
240 K, 7088 kPa, Liquid	1405.56	–
245 K, 12803 kPa, Liquid	1404.29	–
250 K, 18468 kPa, Liquid	1403.09	–
255 K, 1176.9 kPa, Liquid	1363.85	–
255 K, 5115 kPa, Liquid	1371.16	–
255 K, 10377 kPa, Liquid	1380.36	–
255 K, 15392 kPa, Liquid	1388.62	–
255 K, 21124 kPa, Liquid	1397.53	–
255 K, 24078 kPa, Liquid	1401.93	–
260 K, 6173.2 kPa, Liquid	1362.59	–
265 K, 11152 kPa, Liquid	1361.41	–
270 K, 16100 kPa, Liquid	1360.29	–
275 K, 1267.3 kPa, Liquid	1319.85	–
275 K, 4966.8 kPa, Liquid	1328.13	–
275 K, 10048 kPa, Liquid	1338.72	–
275 K, 15054 kPa, Liquid	1348.44	–
275 K, 21020 kPa, Liquid	1359.23	–
280 K, 5624.6 kPa, Liquid	1318.7	–
285 K, 9970.2 kPa, Liquid	1317.63	–
289.99 K, 80.81 kPa, Gas	–	137.76 m/s
290.01 K, 14296 kPa, Liquid	1316.62	–
290.06 K, 80.8 kPa, Gas	–	137.77 m/s
295 K, 1205.6 kPa, Liquid	1273.49	–
295 K, 5284 kPa, Liquid	1284.64	–
295 K, 10000 kPa, Liquid	1296.45	–
295 K, 14695 kPa, Liquid	1307.26	–
295 K, 18582 kPa, Liquid	1315.63	–
299.99 K, 4671.2 kPa, Liquid	1271.6	–
300 K, 4941.7 kPa, Liquid	1272.36	–
300.01 K, 79.96 kPa, Gas	–	140.51 m/s
300.01 K, 80 kPa, Gas	–	140.52 m/s
300.01 K, 113.38 kPa, Gas	–	138.9 m/s
300.02 K, 113.38 kPa, Gas	–	138.9 m/s
305 K, 8702.1 kPa, Liquid	1271.4	–
309.99 K, 12156 kPa, Liquid	1269.71	–
309.99 K, 12442 kPa, Liquid	1270.47	–
314.99 K, 8185.4 kPa, Liquid	1247.49	–
314.99 K, 16168 kPa, Liquid	1269.57	–
315 K, 1207.6 kPa, Liquid	1224.52	–
315 K, 4179.3 kPa, Liquid	1234.82	–
315 K, 11929 kPa, Liquid	1258.3	–
319.59 K, 129.53 kPa, Gas	–	143.66 m/s
319.59 K, 183.14 kPa, Gas	–	141.46 m/s
319.6 K, 129.45 kPa, Gas	–	143.67 m/s
319.6 K, 150.69 kPa, Gas	–	142.81 m/s
319.6 K, 150.7 kPa, Gas	–	142.81 m/s
319.6 K, 183.09 kPa, Gas	–	141.46 m/s
319.6 K, 183.12 kPa, Gas	–	141.46 m/s
319.61 K, 68.35 kPa, Gas	–	146.03 m/s
319.61 K, 129.45 kPa, Gas	–	143.67 m/s
319.61 K, 215.09 kPa, Gas	–	140.12 m/s
319.61 K, 215.18 kPa, Gas	–	140.11 m/s
319.61 K, 215.23 kPa, Gas	–	140.11 m/s
319.62 K, 68.35 kPa, Gas	–	146.03 m/s
319.99 K, 4450.8 kPa, Liquid	1223.61	–
319.99 K, 19560 kPa, Liquid	1267.92	–
325 K, 7686.4 kPa, Liquid	1222.74	–
330 K, 10903 kPa, Liquid	1221.9	–
335.01 K, 948 kPa, Liquid	1170.3	–
335.01 K, 4081.7 kPa, Liquid	1184.44	–
335.01 K, 7985.8 kPa, Liquid	1199.99	–
335.01 K, 11894 kPa, Liquid	1213.83	–
335.01 K, 14112 kPa, Liquid	1221.09	–
339.43 K, 353.83 kPa, Gas	–	140.91 m/s
339.44 K, 145.11 kPa, Gas	–	148.28 m/s
339.44 K, 267.82 kPa, Gas	–	144.07 m/s
339.44 K, 267.83 kPa, Gas	–	144.07 m/s
339.44 K, 267.89 kPa, Gas	–	144.07 m/s
339.44 K, 353.63 kPa, Gas	–	140.92 m/s
339.44 K, 353.76 kPa, Gas	–	140.91 m/s
339.45 K, 144.98 kPa, Gas	–	148.29 m/s
339.45 K, 145.24 kPa, Gas	–	148.28 m/s
339.45 K, 267.8 kPa, Gas	–	144.08 m/s
339.45 K, 267.82 kPa, Gas	–	144.08 m/s
339.47 K, 199.9 kPa, Gas	–	146.45 m/s
339.47 K, 268.41 kPa, Gas	–	144.06 m/s
339.47 K, 321.82 kPa, Gas	–	142.12 m/s
339.47 K, 447.53 kPa, Gas	–	137.13 m/s
339.48 K, 199.88 kPa, Gas	–	146.45 m/s
339.48 K, 268.39 kPa, Gas	–	144.06 m/s
339.48 K, 268.43 kPa, Gas	–	144.06 m/s
339.48 K, 322.03 kPa, Gas	–	142.12 m/s
339.48 K, 374.34 kPa, Gas	–	140.12 m/s
339.48 K, 447.52 kPa, Gas	–	137.13 m/s
339.48 K, 447.57 kPa, Gas	–	137.13 m/s
339.49 K, 85.51 kPa, Gas	–	150.21 m/s
339.49 K, 85.52 kPa, Gas	–	150.22 m/s
339.49 K, 322.01 kPa, Gas	–	142.12 m/s
340 K, 3674.5 kPa, Liquid	1169.48	–
345.01 K, 6402.5 kPa, Liquid	1168.7	–
349.98 K, 366.9 kPa, Gas	17.985	–
350 K, 9119.8 kPa, Liquid	1167.95	–
355.01 K, 990.8 kPa, Liquid	1111.28	–
355.01 K, 2028.5 kPa, Liquid	1117.99	–
355.01 K, 3980.1 kPa, Liquid	1129.59	–
355.01 K, 6026.4 kPa, Liquid	1140.59	–
355.01 K, 8135 kPa, Liquid	1150.94	–
355.01 K, 9972.9 kPa, Liquid	1159.29	–
355.01 K, 11833 kPa, Liquid	1167.22	–
359.44 K, 307.1 kPa, Gas	–	148.62 m/s
359.44 K, 400.17 kPa, Gas	–	145.8 m/s
359.44 K, 400.23 kPa, Gas	–	145.8 m/s
359.44 K, 500.35 kPa, Gas	–	142.58 m/s
359.44 K, 596.92 kPa, Gas	–	139.26 m/s
359.45 K, 307.02 kPa, Gas	–	148.63 m/s
359.45 K, 307.4 kPa, Gas	–	148.62 m/s
359.45 K, 400.08 kPa, Gas	–	145.81 m/s
359.45 K, 500.35 kPa, Gas	–	142.58 m/s and 142.58 m/s
359.45 K, 596.94 kPa, Gas	–	139.26 m/s
359.45 K, 596.95 kPa, Gas	–	139.26 m/s
359.98 K, 499.3 kPa, Gas	24.386	–
360 K, 387.4 kPa, Gas	18.379	–
360 K, 916.6 kPa, Fluid (supercritical or subcritical phases)	1094.63	–
360 K, 3249 kPa, Liquid	1110.57	–
364 K, 2629 kPa, Fluid (supercritical or subcritical phases)	1094.08	–
365.01 K, 5510.3 kPa, Liquid	1109.87	–
368 K, 1297.9 kPa, Fluid (supercritical or subcritical phases)	1070.52	–
368 K, 4345.4 kPa, Fluid (supercritical or subcritical phases)	1093.56	–
370 K, 523.6 kPa, Gas	24.719	–
370.01 K, 524 kPa, Gas	24.736	–
370.01 K, 7766.7 kPa, Liquid	1109.2	–
370.02 K, 407.6 kPa, Gas	18.73	–
372 K, 2880.6 kPa, Fluid (supercritical or subcritical phases)	1070	–
375.01 K, 2017.2 kPa, Liquid	1052.12	–
375.01 K, 4033.7 kPa, Liquid	1069.29	–
375.01 K, 5918 kPa, Liquid	1083.16	–
375.01 K, 7957.7 kPa, Liquid	1096.46	–
375.01 K, 10021 kPa, Liquid	1108.53	–
376 K, 1522.5 kPa, Fluid (supercritical or subcritical phases)	1043.77	–
376 K, 4464.2 kPa, Fluid (supercritical or subcritical phases)	1069.49	–
379.77 K, 81.05 kPa, Gas	–	159.47 m/s and 159.47 m/s
379.77 K, 81.06 kPa, Gas	–	159.48 m/s
379.77 K, 201.41 kPa, Gas	–	156.72 m/s

Liquid
Conditions	vapor or sublimation pressure [kPa]
280.01 K	65.1
290.01 K	96.5
300 K	139
310.01 K	194.9
320.02 K	267.1
330.01 K	357.9
340.01 K	470.7
350.02 K	608.7
360.02 K	775
370.03 K	973.2
